From US9814731B2, “Method for the induction of phase 2 related genes in a mammal comprising administering exemestane” (THE JOHNS HOPKINS UNIVERSITY, priority 2013, dated 2017)

Key:
NF-κB = test: LPS-induced NF-κB luciferase reporter in U937 3×κB-LUC cells; format: cell-based, human; conditions: LPS 10 ng/ml; for effect on LPS-activated NF-κB by itself: 6 hours, exemestane up to 30 μM; for effect on the inhibitory effect of sulforaphane on NF-κB activation: combined with sulforaphane
Experimental: Human monocytic U937-3×κB-LUC cells were transferred to medium with 2% heat-inactivated FBS in 24-well plates (1×10^6 cells/well) and incubated overnight. Then cells were incubated with exemestane, sulforaphane, combination of both compounds, or vehicle control for 30 minutes, and exposed to LPS (10 ng/ml). After an additional 6-hour incubation, cells were harvested and NF-κB-driven luciferase activity was assayed according to the manufacturer's instructions (Promega, Madison, Wis.). Luciferase activity was normalized to total protein concentration to compensate for possible cell toxicity of the compounds.

NQO1 [1] = test: NQO1 assay in murine hepatoma Hepa1c1c7 cells; format: cell-based; conditions: for CD value (concentration required to double the specific activity of NQO1): 48 hours exposure; for inducer activity for NQO1: concentrations up to 20 μM
Experimental: (§1) Cells (10,000 per well) were grown in 96-well plates for 24 hours, then exposed to serial dilutions of inducers for 48 hours, and lysed in 0.08% digitonin. Enzymatic activity of NQ01 in cell lysates was determined with menadione as a substrate (Anal Biochem 169: 328-336 (1988), Methods Enzymol 382(B): 243-258 (2004)). The concentrations required to double the specific activity of NQO1 (CD values) were used to quantify inducer potency.

NQO1 [2] = test: NQO1 assay in human retinal pigment epithelial ARPE-19 cells; format: cell-based; conditions: 48 hours exposure
Experimental: as §1

NQO1 [3] = test: Real-time PCR of NQO1 mRNA in H9c2 cells; format: cell-based, rat; conditions: 10 μM, 6 hours
Experimental: (§2) Total mRNA from cells was extracted with TRIzol reagent (Invitrogen, Carlsbad, Calif.). […] was synthesized by the iScript cDNA Synthesis Kit (Bio-Rad Laboratories, Inc., Hercules, Calif.). Quantitative real-time PCR analysis was performed using the 7000 Sequence Detection System (Applied Biosystems, Foster City, Calif.). All primers were optimized and a final primer concentration of 300 nM was used for all reactions. Primer sequences for gene amplification were as follows: NAD(P)H: quinone oxidoreductase 1 (NQO1): fwd 5′-[…]-3′ (SEQ ID NO: 1), rev 5′-[…]-3′ (SEQ ID NO: 2); heme oxygenase-1 (HO-1): fwd 5′-[…]-3′ (SEQ ID NO: 3), rev 5′-[…]-3′ (SEQ ID NO: 4). (3-actin (endogenous control): fwd 5′-[…]-3′ (SEQ ID NO: 5), rev 5′-catcllllcacggttggcctta-3′ (SEQ ID NO: 6). The reactions were assembled using 5 ng of cDNA, 1× Power SYBR Green PCR Master Mix (Life Technologies), forward and reverse primers, and nuclease-free water. Relative mRNA expression was normalized to β-actin. Gene expression was calculated using the comparative 2^−ΔΔCT method.

WT MEF cells = test: ROS in wild-type MEF challenged with tert-butyl hydroperoxide; format: cell-based, mouse; conditions: 24 hours pretreatment
Experimental: (§3) ARPE-19 or MEF cells (10,000 per well) in 96-well plates (black-walled wells with clear bottom) were treated with serial dilutions of exemestane for 24 hours, and then incubated with 20 μM H2DCFDA for 30 minutes (Chem Res Toxicol 5: 227-231(1992)). After washing with Dulbecco's phosphate-buffered saline (DPBS) twice, the cells were challenged with 500 μM tert-butyl hydroperoxide for 30 minutes, and fluorescence intensity was measured in SpectraMax GeminiEM plate reader (Molecular Devices) with excitation at 485 nm and emission at 530 nm. Murine 308 keratinocytes (40,000 per well) were plated in 24-well plates and grown for 24 hours. Medium was then replaced with medium containing different concentrations of exemestane (0, 2, 4, 8 μM). After further incubation for 24 hours, cells were incubated with 20 μM H2DCFDA for 30 minutes, washed twice with DPBS twice and exposed to 5 or 10 J/cm^2 UVA (340-400 nm). Immediately after UVA irradiation, fluorescence intensity was measured by a microplate reader.

NQO1 [4] = test: NQO1 assay in Nrf2-knockout MEF; format: cell-based, mouse; conditions: 48 hours
Experimental: as §1

ARPE-19 cells [5] = test: Intracellular ROS in ARPE-19 cells challenged with tert-butyl hydroperoxide; format: cell-based, human; conditions: ARPE-19, 24 hours pretreatment, 500 μM tert-butyl hydroperoxide
Experimental: as §3

iNOS [6] = test: LPS-activated iNOS (NO production, Griess reaction) in RAW264.7 cells; format: cell-based, murine; conditions: for IC50: Mus musculus, RAW264.7, 10 ng/ml LPS, 48 h, read-out: IC50 of NO generation; for inhibition of LPS-stimulated NO production: RAW264.7, up to 20 μM
Experimental: RAW264.7 cells (20,000 per well) in 96-well plates, were grown for 24 hours, and exposed to serial dilutions of exemestane in the presence of 10 ng/ml LPS. […] The nitrite values of cells treated with LPS but without test compounds were used as controls.

heme oxygenase-1 (HO-1) = test: Real-time PCR of HO-1 mRNA in H9c2 cells; format: cell-based, rat; conditions: 10 μM, 6 hours
Experimental: as §2

H9c2 cells = test: Hypoxia/reoxygenation injury in H9c2 cardiomyocytes (MTT); format: cell-based, rat; conditions: H9c2, 24 hours pretreatment, 10 μM
Experimental: (§4) ARPE-19 cells (10,000 cells/well) in 96-well plates were treated with serial dilutions of exemestane for 24 hours, and exposed to tert-butyl hydroperoxide or 4-hydroxynonenal in serum-free medium for 4 hours. The cells were then incubated in serum-free medium for additional 20 hours, washed with DPBS, and cell viability was determined using the colorimetric procedure based on the reduction of a water-soluble tetrazolium salt, 3-(4,5-dimethylthiazo-2-yl)-2,5-diphenyltetrazolium bromide (MTT). H9c2 cells (10,000 cells/well) in 96-well plates were treated with a range of concentrations of exemestane. After 24 hours, the cells were washed with DPBS, and exposed to 2 mM Na2S2O4 in serum-free medium for 1 hour. The cells were then washed with DPBS and incubated in complete medium containing 10% FBS for 24 hours, and then cell viability was measured by the MTT assay.

NQO1 [7] = test: NQO1 induction in mouse skin by topical application; format: in vivo, SKH-1 hairless mice; conditions: three applications at 24-hour intervals
Experimental: Eleven-month-old female SKH-1 hairless mice (n=5) purchased from Charles River Laboratories were treated three times at 24-hour intervals on the backs with 0, 1 and 2 μmol of exemestane dissolved in 80% aqueous acetone (40 μL) over about a 2.0 cm^2 area. Mice were euthanized 24 hours after the final dose. Each treated segment of the dorsal skin was harvested, pulverized in liquid N2, and homogenized in 10 volumes of 0.25 M sucrose in 10 mM Tris buffer (pH 7.4). After three freeze-thaw cycles, the homogenates were centrifuged at 14,000 rpm and 4° C. for 30 minutes, and the supernatant fractions were analyzed for protein concentration and NQO1 activity. All animal experiments were in compliance with National Institutes of Health Guidelines and were approved by The Johns Hopkins University Animal Care and Use Committee.

Nrf2-/- MEF cells = test: ROS in Nrf2-/- MEF challenged with tert-butyl hydroperoxide; format: cell-based, mouse; conditions: 24 hours pretreatment
Experimental: as §3

NQO1 [8] = test: NQO1 assay in murine 308 keratinocytes; format: cell-based; conditions: 308 cells, 48 hours exposure
Experimental: as §1

NQO1 [9] = test: NQO1 assay in rat H9c2 myocardiocytes; format: cell-based; conditions: H9c2 cells, 48 hours exposure
Experimental: as §1

iNOS [10] = test: LPS-activated iNOS (NO production) in Nrf2-/- mouse peritoneal macrophages; format: cell-based; conditions: LPS 100 ng/ml, 24 hours
Experimental: (§5) Nrf2−/− mice on C57BL/6 background were initially established by Itoh et al. WT C57BL/6 mice were purchased from The Jackson Laboratory. Macrophages were harvested by lavage from the peritoneal cavity with DPBS 4 days after an i.p. injection of thioglycolate broth (Brewer, 4%). Isolated cells were plated into 96-well plates at a density of 10^5 cells per well in RPMI 1640 medium containing 2 mM Lglutamine, 10% heat-inactivated FBS, 100 U/ml […]. After 3 hours of incubation at 37° C. in 5% CO2. nonmacrophage cells were washed away with DPBS. The remaining macrophages were exposed immediately to serial dilutions of exemestane, sulforaphane or a combination of both compounds in the presence of 100 ng/ml LPS, and incubated for 24 hours before measurement of iNOS.
(§6) RAW264.7 cells (20,000 per well) in 96-well plates, were grown for 24 hours, and exposed to serial dilutions of exemestane in the presence of 10 ng/ml LPS. After 48-hour incubation, nitrite concentration in culture supernatant fractions of RAW264.7 cells or mouse peritoneal macrophages, measured as an indicator of iNOS induction, was determined by the Griess reaction (Cancer Res 58: 717-723 (1998), Proc Natl Acad Sci USA 105: 15926-15931 (2008)). The nitrite values of cells treated with LPS but without test compounds were used as controls.

RAW264.7 cells = test: Cytotoxicity in RAW264.7 cells; format: cell-based, murine; conditions: RAW264.7, 20 μM
ARPE-19 cells [11] = test: Cytotoxicity of oxidative stresses in ARPE-19 cells (MTT); format: cell-based, human; conditions: ARPE-19, 24 hours pretreatment 0-20 μM
Experimental: as §4

breast cancer = conditions: 4560 women at moderately increased risk for developing breast cancer; cited from earlier work
308 keratinocytes = test: UVA-stimulated ROS production in murine 308 keratinocytes; format: cell-based; conditions: 24 hours pretreatment, 5 or 10 J/cm^2 UVA
Experimental: as §3

iNOS [12] = test: LPS-activated iNOS (NO production) in wild-type mouse peritoneal macrophages; format: cell-based; conditions: Peritoneal macrophage, single agent, 100 ng/ml LPS, 24 hours, read-out: concentration required for 50% inhibition of LPS-stimulated nitric oxide generation
Experimental: as §5, §6

NQO1 [13] = test: NQO1 assay in wild-type MEF; format: cell-based, mouse; conditions: 48 hours
Experimental: as §1

[14] = system: Hepa1c1c7, ARPE-19, 308 and H9c2 cells; test: Cytotoxicity in all cell lines of the NQO1 assay (Hepa1c1c7, ARPE-19, 308, H9c2); format: cell-based; conditions: up to 20 μM, the highest concentration tested
Hepa1c1c7 cells = test: Cytotoxicity in Hepa1c1c7 cells; format: cell-based, murine; conditions: 20 μM

| IC50 (iNOS [6]) [nM] | IC50 (iNOS [12]) [nM] | Compound | effect on LPS-activated NF-κB by itself (NF-κB) | effect on the inhibitory effect of sulforaphane on NF-κB activation (NF-κB) | CD value (concentration required to double the specific activity of NQO1) (NQO1 [1]) [µM] | CD value (concentration required to double the specific activity of NQO1) (NQO1 [2]) [µM] | NQO1 activity (NQO1 [4]) | CD value (concentration required to double the specific activity of NQO1) (NQO1 [8]) [µM] | CD value (concentration required to double the specific activity of NQO1) (NQO1 [9]) [µM] | toxicity (RAW264.7 cells) | NQO1 activity (NQO1 [13]) | inducer activity for NQO1 (NQO1 [1]) | inhibition of LPS-stimulated NO production (iNOS [6]) | further results |
| --- | --- | --- | --- | --- | --- | --- | --- | --- | --- | --- | --- | --- | --- | --- |
| 2500 | 24200 | C=C1C[C@@H]2[C@H](CC[C@]3(C)C(=O)CC[C@@H]23)[C@@]2(C)C=CC(=O)C=C12 [Exemestane, 6-methyleneandrosta-1,4-diene-3,17-dione] | no effect | dramatically enhanced | 0.65 | 2.2 | not affected | 0.65 | 2.9 | no toxicity | dose-dependently induced NQO1 activity |  |  | increase in NQO1 mRNA expression over control cells (NQO1 [3]): 3 fold; tert-butyl hydroperoxide-stimulated ROS levels (WT MEF cells): clearly suppressed; ROS production stimulated by tert-butyl hydroperoxide (ARPE-19 cells [5]): suppressed ROS production; increase in mRNA levels of HO-1 over control cells (heme oxygenase-1 (HO-1)): greater than 8 fold; cell viability after hypoxia/reoxygenation (H9c2 cells): almost totally restored cell viability; elevation of NQO1 activity in homogenates of skin (NQO1 [7]; 0.5 μmol/cm^2 per application): 1.3 fold; elevation of NQO1 activity in homogenates of skin (NQO1 [7]; 1.0 μmol/cm^2 per application): 1.7 fold; protection against tert-butyl hydroperoxide-stimulated ROS (Nrf2-/- MEF cells): no protection; inhibition of LPS-stimulated NO production in Nrf2-/- compared with WT macrophages (iNOS [10]): much less effective inhibitor; protection against cytotoxicity of tert-butyl hydroperoxide (ARPE-19 cells [11]; oxidant 0.2, 0.4, 0.8 mM for 4 hours): protected against cytotoxicity; protection against cytotoxicity of 4-hydroxynonenal (ARPE-19 cells [11]; oxidant 10, 20, 40 μM for 4 hours): protected against cytotoxicity; reduction of the risk of breast cancer relative to placebo (breast cancer): 65%; ROS in UVA-irradiated cells (308 keratinocytes): dose-dependently led to the reduction of ROS; cytotoxicity [14]: no cytotoxicity |
|  |  | N#Cc1ccc(C(c2ccc(C#N)cc2)n2cncn2)cc1 [letrozole] | no effect | did not enhance |  |  |  |  |  | no toxicity |  | no inducer activity | did not inhibit |  |
| 500 | 1500 | C[S+]([O-])CCCCN=C=S (stereo not drawn) [sulforaphane, R,S-sulforaphane] |  |  | 0.2 | 0.7 | not affected | 0.2 | 0.9 |  | dose-dependently induced NQO1 activity |  |  |  |
|  |  | CC/C(=C(\c1ccccc1)c1ccc(OCCN(C)C)cc1)c1ccccc1 [tamoxifen] |  |  |  |  |  |  |  |  |  | did not induce NQO1 activity | did not inhibit | cytotoxicity (Hepa1c1c7 cells): about 90%; cytotoxicity (RAW264.7 cells): 50% |
